± gives the expanded uncertainty stated by the source.
What was measured:
[1] = refractive index (Na D-line) (dimensionless); conditions: 293.15 K; 101.33 kPa; Liquid; Standard Abbe refractometry
[2] = Liquid
[3] = 308.15 K, Ebulliometric method (Recirculating still)
[4] = 318.15 K, Ebulliometric method (Recirculating still)
[5] = 323.15 K, Ebulliometric method (Recirculating still)

Row | refractive index [1] | vapor or sublimation pressure ([2]; 298.02 K) [kPa] | vapor or sublimation pressure ([2]; 306.98 K) [kPa] | vapor or sublimation pressure ([2]; 318.15 K) [kPa] | vapor or sublimation pressure ([2]; 319.2 K) [kPa] | vapor or sublimation pressure ([2]; 327.9 K) [kPa] | vapor or sublimation pressure ([2]; 334.78 K) [kPa] | vapor or sublimation pressure ([2]; 340.52 K) [kPa] | vapor or sublimation pressure ([2]; 345.48 K) [kPa] | vapor or sublimation pressure ([2]; 349.85 K) [kPa] | vapor or sublimation pressure ([2]; 353.81 K) [kPa] | vapor or sublimation pressure ([2]; 355.64 K) [kPa] | SMILES | vapor or sublimation pressure [2, 3] [kPa] | vapor or sublimation pressure [2, 4] [kPa] | vapor or sublimation pressure [2, 5] [kPa]
1 | 1.3698 ± 0.0007 |  |  |  |  |  |  |  |  |  |  |  | COC(C)(C)C [2-methoxy-2-methylpropane] | 49.48 ± 0.15 | 71.41 ± 0.17 | 84.91 ± 0.18
2 | 1.3862 ± 0.0009 | 10 ± 0.09 | 15 ± 0.1 | 23.99 ± 0.19 | 25 ± 0.13 | 35 ± 0.15 | 45 ± 0.18 | 55 ± 0.21 | 65 ± 0.24 | 75 ± 0.27 | 85 ± 0.3 | 90 ± 0.32 | CCC(C)(C)OC [2-methoxy-2-methylbutane] |  |  | 

Row | SMILES | refractive index [1] | vapor or sublimation pressure ([2]; 298.02 K) [kPa] | vapor or sublimation pressure ([2]; 306.98 K) [kPa] | vapor or sublimation pressure ([2]; 318.15 K) [kPa] | vapor or sublimation pressure ([2]; 319.2 K) [kPa] | vapor or sublimation pressure ([2]; 327.9 K) [kPa] | vapor or sublimation pressure ([2]; 334.78 K) [kPa] | vapor or sublimation pressure ([2]; 340.52 K) [kPa] | vapor or sublimation pressure ([2]; 345.48 K) [kPa] | vapor or sublimation pressure ([2]; 349.85 K) [kPa] | vapor or sublimation pressure ([2]; 353.81 K) [kPa] | vapor or sublimation pressure ([2]; 355.64 K) [kPa] | vapor or sublimation pressure [2, 3] [kPa] | vapor or sublimation pressure [2, 4] [kPa] | vapor or sublimation pressure [2, 5] [kPa]
3 | Cc1ccccc1 [toluene] | 1.4965 ± 0.0007 |  |  |  |  |  |  |  |  |  |  |  | 6.18 ± 0.1 | 9.88 ± 0.1 | 12.28 ± 0.1
